Tests used:
pigweed = test: Test B pre/postemergence pigweed; type: in vivo, Amaranthus retroflexus
Outline: (§1)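 Response is a visual 0-to-10 score relative to untreated plants, where 0 means no effect and 10 means complete control, taken twelve to sixteen days after application. Treatments went onto soil at planting and onto foliage of 1- to 4-leaf plants, using a surfactant-containing non-phytotoxic solvent.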

purple nutsedge = test: Test B pre/postemergence purple nutsedge; type: in vivo, Cyperus rotundus
Outline: as §1

morningglory = test: Test B pre/postemergence morningglory; type: in vivo, Ipomoea hederacea
Outline: as §1

cocklebur = test: Test B pre/postemergence cocklebur; type: in vivo, Xanthium strumarium
Outline: as §1

giant foxtail = test: Test B pre/postemergence giant foxtail; type: in vivo, Setaria faberii
Outline: as §1

wheat = test: Test B pre/postemergence wheat; type: in vivo, Triticum aestivum
Outline: as §1

corn = test: Test B pre/postemergence corn; type: in vivo, Zea mays
Outline: as §1

velvetleaf = test: Test B pre/postemergence velvetleaf; type: in vivo, Abutilon theophrasti
Outline: as §1

wild oat = test: Test B pre/postemergence wild oat; type: in vivo, Avena fatua
Outline: as §1

rape = test: Test B pre/postemergence rape; type: in vivo, Brassica napus
Outline: as §1

smallflower flatsedge = test: Test B flood test smallflower flatsedge; type: in vivo, Cyperus difformis
Outline: (§2)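 Read-out is a visual response score from 0 (no effect) to 10 (complete control), assigned by comparison with untreated controls. Treatment was applied at the 2-leaf stage, and plants stayed in the greenhouse for twelve to sixteen days before scoring.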

duck salad = test: Test B flood test duck salad; type: in vivo, Heteranthera limosa
Outline: as §2

crabgrass = test: Test B pre/postemergence crabgrass; type: in vivo, Digitaria sanguinalis
Outline: as §1

rice = test: Test B flood test rice; type: in vivo, Oryza sativa
Outline: as §2

sugar beet = test: Test B pre/postemergence sugar beet; type: in vivo, Beta vulgaris
Outline: as §1

soybean = test: Test B pre/postemergence soybean; type: in vivo, Glycine max
Outline: as §1

[1] = Postemergence, Rate 62 g/ha, scale 0 to 10, 0 is no effect, 10 is complete control
[2] = Postemergence, Rate 250 g/ha, scale 0 to 10, 0 no effect, 10 complete control
[3] = Preemergence, Rate 62 g/ha, scale 0 to 10, 0 is no effect, 10 is complete control
[4] = Preemergence, Rate 125 g/ha, scale 0 to 10 (0 no effect, 10 complete control)
[5] = Preemergence, Rate 250 g/ha, scale of 0 to 10 where 0 is no effect and 10 is complete control
[6] = Preemergence, Rate 500 g/ha, scale 0 (no effect) to 10 (complete control)
[7] = Rate 125 g/ha, Postemergence, scale 0 to 10, 0 no effect, 10 complete control
[8] = Rate 500 g/ha, Postemergence, 0 to 10 scale (0 no effect, 10 complete control)
[9] = Rate 125 g/ha, Postemergence section (flood test species), scale 0 to 10, 0 no effect, 10 complete control
[10] = flood test, listed under Postemergence, Rate 250 g/ha, scale 0 to 10, 0 no effect, 10 complete control
[11] = Rate 500 g/ha, Postemergence section of Table B, 0 to 10 scale (0 no effect, 10 complete control)

Cc1ccccc1-n1c(=O)on(C(=O)N(c2cc(OC(C)C)c(Cl)cc2Cl)C(C)C)c1=O [Compound 42]
Redroot pigweed plant response rating (pigweed; [1]): 0
Redroot pigweed plant response rating (pigweed; [2]): 0
Plant response rating, Redroot pigweed (pigweed; [3]): 0
Plant response rating, Redroot pigweed (pigweed; [4]): 0
Plant response rating, Redroot pigweed (pigweed; [5]): 0
Redroot pigweed plant response rating (pigweed; [6]): 0
Redroot pigweed plant response rating (pigweed; [7]): 0
Redroot pigweed plant response rating (pigweed; [8]): 2
Nutsedge plant response rating (purple nutsedge; [1]): 0
Nutsedge plant response rating (purple nutsedge; [2]): 0
Plant response rating, Nutsedge (purple nutsedge; [3]): 0
Plant response rating, Nutsedge (purple nutsedge; [4]): 0
Plant response rating, Nutsedge (purple nutsedge; [5]): 0
Nutsedge plant response rating (purple nutsedge; [6]): 0
Nutsedge plant response rating (purple nutsedge; [7]): 0
Nutsedge plant response rating (purple nutsedge; [8]): 0
Morningglory plant response rating (morningglory; [1]): 0
Morningglory plant response rating (morningglory; [2]): 0
Plant response rating, Morningglory (morningglory; [3]): 0
Plant response rating, Morningglory (morningglory; [4]): 0
Plant response rating, Morningglory (morningglory; [5]): 0
Morningglory plant response rating (morningglory; [6]): 0
Morningglory plant response rating (morningglory; [7]): 0
Morningglory plant response rating (morningglory; [8]): 1
Cocklebur plant response rating (cocklebur; [1]): 0
Cocklebur plant response rating (cocklebur; [2]): 0
Plant response rating, Cocklebur (cocklebur; [3]): 0
Plant response rating, Cocklebur (cocklebur; [4]): 0
Plant response rating, Cocklebur (cocklebur; [5]): 0
Cocklebur plant response rating (cocklebur; [6]): 0
Cocklebur plant response rating (cocklebur; [7]): 0
Cocklebur plant response rating (cocklebur; [8]): 0
Giant foxtail plant response rating (giant foxtail; [1]): 0
Giant foxtail plant response rating (giant foxtail; [2]): 0
Plant response rating, Giant foxtail (giant foxtail; [3]): 0
Plant response rating, Giant foxtail (giant foxtail; [4]): 0
Plant response rating, Giant foxtail (giant foxtail; [5]): 0
Giant foxtail plant response rating (giant foxtail; [6]): 0
Giant foxtail plant response rating (giant foxtail; [7]): 0
Giant foxtail plant response rating (giant foxtail; [8]): 0
Wheat plant response rating (wheat; [1]): 0
Wheat plant response rating (wheat; [2]): 0
Plant response rating, Wheat (wheat; [3]): 0
Plant response rating, Wheat (wheat; [4]): 0
Plant response rating, Wheat (wheat; [5]): 0
Wheat plant response rating (wheat; [6]): 0
Wheat plant response rating (wheat; [7]): 0
Corn plant response rating (corn; [1]): 0
Corn plant response rating (corn; [2]): 0
Plant response rating, Corn (corn; [3]): 0
Plant response rating, Corn (corn; [4]): 0
Plant response rating, Corn (corn; [5]): 0
Corn plant response rating (corn; [6]): 0
Corn plant response rating (corn; [7]): 0
Corn plant response rating (corn; [8]): 0
Velvetleaf plant response rating (velvetleaf; [1]): 0
Velvetleaf plant response rating (velvetleaf; [2]): 0
Plant response rating, Velvetleaf (velvetleaf; [3]): 0
Plant response rating, Velvetleaf (velvetleaf; [4]): 0
Plant response rating, Velvetleaf (velvetleaf; [5]): 0
Velvetleaf plant response rating (velvetleaf; [6]): 0
Velvetleaf plant response rating (velvetleaf; [7]): 0
Wild oats plant response rating (wild oat; [1]): 0
Wild oats plant response rating (wild oat; [2]): 0
Plant response rating, Wild oats (wild oat; [4]): 0
Plant response rating, Wild oats (wild oat; [5]): 0
Wild oats plant response rating (wild oat; [6]): 0
Wild oats plant response rating (wild oat; [7]): 0
Rape plant response rating (rape; [1]): 0
Rape plant response rating (rape; [2]): 0
Plant response rating, Rape (rape; [3]): 0
Plant response rating, Rape (rape; [4]): 0
Plant response rating, Rape (rape; [5]): 0
Rape plant response rating (rape; [6]): 0
Rape plant response rating (rape; [7]): 0
Rape plant response rating (rape; [8]): 0
S. Flatsedge plant response rating (smallflower flatsedge; [1]): 0
S. Flatsedge plant response rating (smallflower flatsedge; [9]): 0
S. Flatsedge plant response rating (smallflower flatsedge; [10]): 0
Ducksalad plant response rating (duck salad; [1]): 0
Ducksalad plant response rating (duck salad; [9]): 0
Ducksalad plant response rating (duck salad; [11]): 0
Ducksalad plant response rating (duck salad; [10]): 0
Crabgrass plant response rating (crabgrass; [1]): 0
Crabgrass plant response rating (crabgrass; [2]): 0
Plant response rating, Crabgrass (crabgrass; [3]): 0
Plant response rating, Crabgrass (crabgrass; [4]): 0
Plant response rating, Crabgrass (crabgrass; [5]): 0
Crabgrass plant response rating (crabgrass; [6]): 0
Crabgrass plant response rating (crabgrass; [7]): 0
Crabgrass plant response rating (crabgrass; [8]): 0
Rice plant response rating (rice; [1]): 0
Rice plant response rating (rice; [9]): 0
Rice plant response rating (rice; [11]): 0
Rice plant response rating (rice; [10]): 0
Sugarbeets plant response rating (sugar beet; [1]): 0
Sugarbeets plant response rating (sugar beet; [2]): 0
Plant response rating, Sugarbeets (sugar beet; [3]): 0
Plant response rating, Sugarbeets (sugar beet; [4]): 0
Plant response rating, Sugarbeets (sugar beet; [5]): 0
Sugarbeets plant response rating (sugar beet; [6]): 0
Sugarbeets plant response rating (sugar beet; [7]): 0
Soybean plant response rating (soybean; [1]): 0
Soybean plant response rating (soybean; [2]): 0
Plant response rating, Soybean (soybean; [3]): 0
Plant response rating, Soybean (soybean; [4]): 0
Plant response rating, Soybean (soybean; [5]): 0
Soybean plant response rating (soybean; [6]): 0
Soybean plant response rating (soybean; [7]): 0

Reference: patent US6737383B1, “Herbicidal oxadiazolidines” (priority 1999, dated 2004)
